PubChem BioAssay AID2060611 (Molecular Pharmacology Branch, DTP, NCI, 2025)

Tested on: 628569-122-R-J1-PDC complex spheroid viability
Experiment: Anticancer human tumor 628569-122-R-J1-PDC patient-derived head and neck squamous carcinoma cell line growth inhibition [CLK]
Settings: for IC50: curve of first compound; for viability, T/C: stronger effect = lower value
From the text: A high-throughput screen of multi-cell type tumor spheroids was designed to identify active combinations of […] and targeted small molecules. Complex spheroids include a stromal component modeled by human endothelial cells (HUVEC) and fibroblasts modeled by human mesenchymal stem cells (MSCs). The concentration ranges selected for each drug and investigational agent were based upon clinically achievable concentrations if the clinical Cmax of the agent was known.
Compounds. The drugs and investigational agents: cirtuvivint (SM08502; NSC835563), CC-671 (NSC850746), vemurafenib (NSC761431), tapotoclax (NSC804041), sotorasib (NSC818433), adagrasib (NSC831453), MRTX-1133 (NSC836407), BAY2416964 (NSC825713), copanlisib (NSC816437), inavolisib (NSC800729), abemaciclib (NSC768073), osimertinib (NSC779217), entinostat (NSC756642), eltanexor (KPT-8602, NSC794443), venetoclax (NSC766270), ceralasertib (NSC777638), bortezomib (NSC756655), olaparib (NSC753686), talazoparib (NSC767125), alisertib (NSC759677), peposertib (NSC802822), gemcitabine (NSC613327), 5-fluorouracil (NSC19893), SN-38 (NSC673596), oxaliplatin (NSC266046), paclitaxel (NSC125973), and doxorubicin (NSC123127), were obtained from the National Cancer Institute (NCI) Developmental Therapeutics Program Chemical Repository. The FDA-approved anticancer drug set is available from the Developmental Therapeutics Program at https://dtp.cancer.gov/organization/dscb/obtaining/available plates.htm. […] The stock solutions were prepared in dimethyl sulfoxide (DMSO, Sigma-Aldrich, St. Louis, MO, cat. D2650), except for the platinum complexes which were prepared in saline (Quality Biological, Gaithersburg, MD, cat. 114-055-101), at 800-fold the tested concentration and stored at -70 degrees C prior to their use. All drugs and investigational agents were tested over a range starting from a high concentration at or near the clinical Cmax and decreasing in half-log increments. If the clinical Cmax for an agent had not been determined, the highest concentration tested was 10 microM.
Cell Culture. All cells were maintained in an incubator at 37 degrees C and 5% CO2 with 95% humidity. The PDC lines were cultured according to standard operating procedures established by the NCI PDMR. Briefly, all PDCs were thawed and cultured in Matrigel-coated flasks prepared with a working solution of 1X Ham's F-12 nutrient mix, without supplementation (Invitrogen, Waltham, MA, cat. 11765054), 100 U/mL penicillin-streptomycin (Invitrogen, cat. 15140122), and 2.5% Matrigel (Corning Inc., Corning, NY, cat. 354248) for the first three passages. The 947758-054-R-J2-PDC line was cultured in 6B/Colon 1A media, which includes advanced DMEM/F-12 (Thermo Fisher Scientific, cat. 12634028), 10 mM HEPES (Thermo Fisher Scientific, cat. 15630080), 1X GlutaMAX supplement (Thermo Fisher Scientific, cat. 35050061), 0.1 mg/mL primocin (InvivoGen, cat. ant-pm-2), 10% defined fetal bovine serum, heat inactivated (HyClone Laboratories Inc., cat. SH30070.03HI), 1.25 mM N-Acetyl-L-cysteine (Sigma-Aldrich, cat. A9165), 10 mM nicotinamide (Sigma-Aldrich, cat. N0636), 1X B-27 supplement (Thermo Fisher Scientific, cat. 17504044), 1X N-2 supplement (Thermo Fisher Scientific, cat. 17502048), and 10 microM Y-27632 dihydrochloride (Tocris Bioscience, cat. 1254). The 876862-298-R-J1-PDC was cultured in 6E media, which includes all 6B/Colon 1A media components plus 50% L-WRN conditioned media (ATCC, cat. CRL-3276), 50 ng/mL recombinant human EGF recombinant protein (hEGF; Thermo Fisher Scientific, cat. PHG0311), 10 ng/mL recombinant human fibroblast growth factor 10 (hGFG-10; PeproTech, cat. 100-26), 1 ng/mL recombinant human fibroblast growth factor 2 (hFGF-2; PeproTech, cat. 100-18B), and 1 µM prostaglandin E2 (PGE2; Tocris, cat. 2296). The 227483-062-R1-J1-PDC line was cultured in Panc media, containing all 6E components except hFGF-2, with the addition of 500 nM SB-431542 (Selleckchem, cat. S1067) and 10 nM gastrin (Tocris, cat. 3006). […]
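Also: spheroids exposed to agents for seven days before readout.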
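For viability, T/C in this document: 100% = DMSO vehicle control viability.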

`COc1c(OCCCN2CCOCC2)ccc2c3n(c(=NC(=O)c4cnc(N)nc4)nc12)CCN3` + CNC(=O)c1ccc(Nc2nc(OC3CCCC3)c3c(-c4ccc5nc(C)oc5c4)c[nH]c3n2)c(OC)c1 was tested, and the IC50 (second compound 0.0316 µM) was 23.4 nM, the IC50 (second compound 0.1 µM) was < 3.16 nM and the IC50 (second compound 0.316 µM) was < 3.16 nM. For the same compound, the IC50 (second compound 1 µM) was < 3.16 nM, the IC50 (second compound 3.16 µM) was < 3.16 nM and the IC50 (second compound 10 µM) was < 3.16 nM. The viability, T/C (second compound 0.0316 µM, first compound 0.00316 µM) was 83.1%, the viability, T/C (second compound 0.0316 µM, first compound 0.01 µM) was 66.5% and the viability, T/C (second compound 0.0316 µM, first compound 0.0316 µM) was 43.5%. The viability, T/C (second compound 0.0316 µM, first compound 0.1 µM) was 25.6%, the viability, T/C (second compound 0.0316 µM, first compound 0.316 µM) was 20.6% and the viability, T/C (second compound 0.0316 µM, first compound 1 µM) was 5.3%. It also gave a viability, T/C (second compound 0.1 µM, first compound 0.00316 µM) of 46.8%, a viability, T/C (second compound 0.1 µM, first compound 0.01 µM) of 46.2% and a viability, T/C (second compound 0.1 µM, first compound 0.0316 µM) of 28.7%. It also gave a viability, T/C (second compound 0.1 µM, first compound 0.1 µM) of 22%, a viability, T/C (second compound 0.1 µM, first compound 0.316 µM) of 19.6% and a viability, T/C (second compound 0.1 µM, first compound 1 µM) of 8.28%. It also gave a viability, T/C (second compound 0.316 µM, first compound 0.00316 µM) of 48.3%, a viability, T/C (second compound 0.316 µM, first compound 0.01 µM) of 47.7% and a viability, T/C (second compound 0.316 µM, first compound 0.0316 µM) of 29.8%. It also gave a viability, T/C (second compound 0.316 µM, first compound 0.1 µM) of 17.1%, a viability, T/C (second compound 0.316 µM, first compound 0.316 µM) of 16.2% and a viability, T/C (second compound 0.316 µM, first compound 1 µM) of 6.59%. The viability, T/C (second compound 1 µM, first compound 0.00316 µM) was 37.8%, the viability, T/C (second compound 1 µM, first compound 0.01 µM) was 34.3% and the viability, T/C (second compound 1 µM, first compound 0.0316 µM) was 27.3%. It also gave a viability, T/C (second compound 1 µM, first compound 0.1 µM) of 23.5%, a viability, T/C (second compound 1 µM, first compound 0.316 µM) of 13.9% and a viability, T/C (second compound 1 µM, first compound 1 µM) of 3.21%. For the same compound, the viability, T/C (second compound 3.16 µM, first compound 0.00316 µM) was 41.6%, the viability, T/C (second compound 3.16 µM, first compound 0.01 µM) was 34.7% and the viability, T/C (second compound 3.16 µM, first compound 0.0316 µM) was 27.4%. The viability, T/C (second compound 3.16 µM, first compound 0.1 µM) was 15.4%, the viability, T/C (second compound 3.16 µM, first compound 0.316 µM) was 5.46% and the viability, T/C (second compound 3.16 µM, first compound 1 µM) was 3.02%. The viability, T/C (second compound 10 µM, first compound 0.00316 µM) was 37.5%, the viability, T/C (second compound 10 µM, first compound 0.01 µM) was 28.5% and the viability, T/C (second compound 10 µM, first compound 0.0316 µM) was 30.3%. For the same compound, the viability, T/C (second compound 10 µM, first compound 0.1 µM) was 12.8%, the viability, T/C (second compound 10 µM, first compound 0.316 µM) was 21.6% and the viability, T/C (second compound 10 µM, first compound 1 µM) was 7.07%.

In the case of `NC(=O)C(=Cn1cnc(-c2cc(C(F)(F)F)cc(C(F)(F)F)c2)n1)c1cncnc1` + CNC(=O)c1ccc(Nc2nc(OC3CCCC3)c3c(-c4ccc5nc(C)oc5c4)c[nH]c3n2)c(OC)c1, the IC50 (second compound 0.0316 µM) is reported as 681 nM, the IC50 (second compound 0.1 µM) is reported as 137 nM and the IC50 (second compound 0.316 µM) is reported as < 9.49 nM. For the same compound, the IC50 (second compound 1 µM) was < 9.49 nM, the IC50 (second compound 3.16 µM) was < 9.49 nM and the IC50 (second compound 10 µM) was < 9.49 nM. For the same compound, the viability, T/C (second compound 0.0316 µM, first compound 0.00949 µM) was 75.8%, the viability, T/C (second compound 0.0316 µM, first compound 0.03 µM) was 61.6% and the viability, T/C (second compound 0.0316 µM, first compound 0.0949 µM) was 69.8%. The viability, T/C (second compound 0.0316 µM, first compound 0.3 µM) was 52%, the viability, T/C (second compound 0.0316 µM, first compound 0.949 µM) was 50.8% and the viability, T/C (second compound 0.0316 µM, first compound 3 µM) was 35.6%. It also gave a viability, T/C (second compound 0.1 µM, first compound 0.00949 µM) of 52.4%, a viability, T/C (second compound 0.1 µM, first compound 0.03 µM) of 53.9% and a viability, T/C (second compound 0.1 µM, first compound 0.0949 µM) of 50.5%. For the same compound, the viability, T/C (second compound 0.1 µM, first compound 0.3 µM) was 47.5%, the viability, T/C (second compound 0.1 µM, first compound 0.949 µM) was 39.5% and the viability, T/C (second compound 0.1 µM, first compound 3 µM) was 32.4%. For the same compound, the viability, T/C (second compound 0.316 µM, first compound 0.00949 µM) was 47.1%, the viability, T/C (second compound 0.316 µM, first compound 0.03 µM) was 51.7% and the viability, T/C (second compound 0.316 µM, first compound 0.0949 µM) was 44.1%. The viability, T/C (second compound 0.316 µM, first compound 0.3 µM) was 42.5%, the viability, T/C (second compound 0.316 µM, first compound 0.949 µM) was 35.9% and the viability, T/C (second compound 0.316 µM, first compound 3 µM) was 33.8%. It also gave a viability, T/C (second compound 1 µM, first compound 0.00949 µM) of 40.7%, a viability, T/C (second compound 1 µM, first compound 0.03 µM) of 45.9% and a viability, T/C (second compound 1 µM, first compound 0.0949 µM) of 31.9%. It also gave a viability, T/C (second compound 1 µM, first compound 0.3 µM) of 29.5%, a viability, T/C (second compound 1 µM, first compound 0.949 µM) of 26.2% and a viability, T/C (second compound 1 µM, first compound 3 µM) of 25.7%. For the same compound, the viability, T/C (second compound 3.16 µM, first compound 0.00949 µM) was 36.9%, the viability, T/C (second compound 3.16 µM, first compound 0.03 µM) was 41.2% and the viability, T/C (second compound 3.16 µM, first compound 0.0949 µM) was 28.7%. The viability, T/C (second compound 3.16 µM, first compound 0.3 µM) was 25.5%, the viability, T/C (second compound 3.16 µM, first compound 0.949 µM) was 15.9% and the viability, T/C (second compound 3.16 µM, first compound 3 µM) was 12.3%. It also gave a viability, T/C (second compound 10 µM, first compound 0.00949 µM) of 38.6%, a viability, T/C (second compound 10 µM, first compound 0.03 µM) of 33.7% and a viability, T/C (second compound 10 µM, first compound 0.0949 µM) of 30.7%. It also gave a viability, T/C (second compound 10 µM, first compound 0.3 µM) of 21.4%, a viability, T/C (second compound 10 µM, first compound 0.949 µM) of 17.7% and a viability, T/C (second compound 10 µM, first compound 3 µM) of 13.7%.
